According to publication PMC10447463, “Data-mining unveils structure–property–activity correlation of viral infectivity enhancing self-assembling peptides” (Nature Communications, 2023):
Where two headings read alike, the source gives them in different places.

Columns and labels:
[1] = Conversion rate (CR) assay with fluorescamine; assay type: physicochemical
How it was run: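 Measurements on freeze-dried PNF powders used a diamond ATR element, 64 scans each, with β-sheet fraction derived as previously reported. CR reflects loss of fluorescamine-reactive monomer after 3 kDa ultrafiltration, averaged over triplicates.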

[2] = tested on: TZM-bl cells; assay type: cell-based; conditions: CellTiter-Glo, mean of n = 3 replicates; for viability 0.26 µM: peptide 0.26 µM; for viability 1.3 µM: peptide 1.3 µM; for viability 6.5 µM: peptide 6.5 µM
How it was run: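 Viability of TZM-bl cells (10,000 seeded) after 3 days with serially diluted peptides, measured by CellTiter-Glo luminescence. Values normalized to 100% metabolic activity; triplicates.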

Row | Sequence | Conversion Rate / % [1] [%] | Conversion Rate / % ([1]; fluorescamine assay) [%] | viability 0.26 µM [2] | viability 1.3 µM [2] | viability 6.5 µM [2]
1 | CKFKQFFNMWQ [CK13] | 98.72 | 98.72 | 122.3 | 108 | 88.49
2 | QCKFKFQFNMWQ [CK7] | 98.91 | 98.91 | 107 | 97.9 | 88.11
3 | CKFKFQFNMWQ [BL2] | 99.03 | 99.03 | 106 | 95.99 | 75.41
4 | QCKIKIQINMWQ [EF-C opt] | 93.68 | 93.68 | 100.5 | 106.5 | 85.71
